Assay results taken from patent US20260098037A1, “COMPOUND CONTAINING MULTI-FUSED RING STRUCTURE” (Chia Tai Tianqing Pharmaceutical Group Co., Ltd., priority 2023, published 2026).
Read-outs that look alike come from different tables or passages of the source.

Columns and labels:
GLP1R = GLP1R (Homo sapiens, UniProt P43220); experiment: In vitro cellular cAMP expression activity assay (CRE-luciferase reporter); type: cell-based; settings: HEK293/CRE-Luc/GLP1R cells, 6 h incubation, luciferase luminescence; read-out: HEK293/CRE-Luc/GLP-1R EC50
Method: HEK293/CRE-Luc/GLP1R cells (manufacturer: GenScript Biotech Corporation) in a good growth state were taken, washed with PBS, and digested with pancreatin. The digestion was terminated with a complete medium. The cells were collected into a centrifuge tube, adjusted to a cell density of 4×10^5 cells/mL using a DMEM+2% FBS medium, seeded in a 96-well plate (100 μL/well), and incubated at 37° C. for 1 h. After 1 h, the compounds were added using a nanoliter pipettor such that the final concentrations of the compounds were 10 nM-0.0006 nM. The compounds were added in duplicate, and a control was set. After the cells were incubated in a cell incubator for another 6 h, a detection reagent Luciferase (manufacturer: Vazyme Biotech, 50 μL/well) was added. The plate was left to stand at room temperature for 3 min to fully lyse the cells, and the luminescence was detected on a PerkinElmer Envision microplate reader. A dose-response curve was fitted by four-parameter analysis, and the EC50 was calculated.

[1] = In vitro stability assay in liver microsome (HLM); type: in vitro ADME, human; settings: liver microsome 0.5 mg/mL, NADPH+MgCl2, PBS pH 7.4, 1 h
Method: (§1) Liver microsome incubation samples were prepared by mixing a PBS buffer (pH 7.4), a liver microsome solution (0.5 mg/mL), a test compound, and an NADPH+MgCl2 solution, and incubated at […] and 300 rpm for 1 h. Zero-hour samples were prepared by mixing a PBS buffer (pH 7.4), a liver microsome solution (0.5 mg/mL), and a test compound. An acetonitrile solution containing an internal standard was added to the samples, and supernatants were prepared by protein precipitation, diluted, and then assayed by LC/MS/MS.

[2] = In vitro stability assay in liver microsome (MLM); type: in vitro ADME, mouse; settings: liver microsome 0.5 mg/mL, NADPH+MgCl2, PBS pH 7.4, 1 h
Method: as §1

[3] = In vivo pharmacokinetic evaluation in mice; settings: mouse, plasma, ICR mice; for bioavailability: ig 3 mg/kg vs iv 0.5 mg/kg, read-out: Absolute bioavailability F; for MRT last: read-out: MRT(0-24); for half-life: read-out: t½ (converted); for AUC(0-t): read-out: AUC(0-24)
Method: ICR mice of 18-22 g were randomized into 4 groups of 9 mice after 3-5 days of acclimatization. […]
The test animals (ICR mice) were fasted from 12 h pre-dose to 4 h post-dose, and given free access to water throughout the study.
Orbital blood samples of about 0.1 mL were collected at 15 min, 30 min, 1 h, 2 h, 3 h, 4 h, 6 h, 8 h, 10 h, and 24 h post-dose for the intragastric administration, and at 5 min, 10 min, 30 min, 1 h, 2 h, 4 h, 6 h, 8 h, 10 h, and 24 h post-dose for the intravenous administration. The blood sampling was performed at 3-4 time points for each mouse, 3 mice per time point. The collected whole blood was transferred into EDTA-K2-containing centrifuge tubes and stored at 4° C., and, within 1 h, centrifuged at 4° C. at 4000 rpm for 10 min to separate the plasma. All the plasma samples were immediately stored after collection at −20° C. for testing.
30 μL of the plasma sample to be tested and a standard curve sample were pipetted and added with 300 μL of an acetonitrile solution containing an internal standard (20 ng/mL of diazepam). The mixture was shaken to mix well for 5 min, and centrifuged at 13,000 rpm for 10 min. 80 μL of the supernatant was taken and diluted with 80 μL of ultrapure water. After a thorough mixing, 2 μL of the resulting sample was taken for liquid chromatography-mass spectrometry, and the chromatogram was recorded.

Chain of GLP1R (P43220 24-463): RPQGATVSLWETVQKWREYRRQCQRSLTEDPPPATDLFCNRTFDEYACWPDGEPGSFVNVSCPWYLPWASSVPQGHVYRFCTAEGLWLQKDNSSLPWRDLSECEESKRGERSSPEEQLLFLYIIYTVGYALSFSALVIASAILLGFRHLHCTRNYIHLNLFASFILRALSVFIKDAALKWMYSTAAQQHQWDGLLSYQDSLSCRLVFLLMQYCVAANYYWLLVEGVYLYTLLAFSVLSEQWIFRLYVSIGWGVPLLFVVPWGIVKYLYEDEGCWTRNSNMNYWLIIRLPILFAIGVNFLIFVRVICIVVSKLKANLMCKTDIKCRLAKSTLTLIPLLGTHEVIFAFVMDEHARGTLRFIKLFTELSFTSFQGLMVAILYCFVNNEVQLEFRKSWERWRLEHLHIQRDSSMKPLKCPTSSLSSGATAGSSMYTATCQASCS

Compound `C[C@H]1c2c(nn(-c3ccc(F)c(C4CC4)c3)c2-n2ccn(-c3ccc4c(c3)C3(CC3)C(=O)N4C)c2=O)CCN1C(=O)c1cc2cc(C3CCOC(C)(C)C3)ccc2n1[C@@]1(c2nc(=O)o[nH]2)C[C@@H]1C` (single isomer, unassigned) [Compound 6] has an EC50 (GLP1R) of under 0.5 nM.

With `C[C@H]1c2c(nn(-c3ccc(F)c(C4CC4)c3)c2-n2ccn(-c3ccc4c(c3)N(C)C(=O)C43CC3)c2=O)CCN1C(=O)c1cc2cc(C3CCOC(C)(C)C3)ccc2n1C1(c2noc(=O)[nH]2)CC1` (single isomer, unassigned) [Compound 20] the EC50 (GLP1R) was under 0.5 nM, the “HLM Remaining (T = 60 min)” value [1] was 95.39% and the “MLM Remaining (T = 60 min)” value [2] was 77.59%.

In the case of `Cc1cc(-n2nc3c(c2-n2ccn(-c4ccc5c(c4)C4(CCC4)C(=O)N5C)c2=O)[C@H](C)N(C(=O)c2cc4cc(C5CCOC(C)(C)C5)ccc4n2[C@@]2(c4nc(=O)o[nH]4)C[C@@H]2C)CC3)cc(C)c1F` (single isomer, unassigned) [Compound 21], the EC50 (GLP1R) is reported as under 0.5 nM.

`Cc1cc(-n2nc3c(c2-n2ccn(-c4ccc5c(c4)C4(CC4)C(=O)N5C)c2=O)C(C)N(C(=O)c2cc4cc(C5CCOC(C)(C)C5)ccn4c2C2(c4noc(=O)[nH]4)CC2C)CC3)cc(C)c1F` (single isomer, unassigned) [Compound 22-A] gave an EC50 (GLP1R) of under 0.5 nM.

Compound `Cc1cc(-n2nc3c(c2-n2ccn(-c4ccc5c(c4)C4(CC4)C(=O)N5C)c2=O)[C@H](C)N(C(=O)c2cc4cc([C@H]5CCOC(C)(C)C5)ccc4n2[C@@]2(c4noc(=O)[nH]4)C[C@@H]2C)CC3)cc(C)c1F` [Compound 1-A] has an EC50 (GLP1R) of under 0.5 nM.

In the case of `[2H]C([2H])([2H])N1C(=O)C2(CC2)c2cc(-n3ccn(-c4c5c(nn4-c4cc(C)c(F)c(C)c4)CCN(C(=O)c4cc6cc([C@H]7CCOC(C)(C)C7)ccc6n4[C@@]4(c6noc(=O)[nH]6)C[C@@H]4C)[C@H]5C)c3=O)ccc21` [Compound 2], the EC50 (GLP1R) is reported as under 0.5 nM, the “HLM Remaining (T = 60 min)” value [1] is reported as 88.76% and the “MLM Remaining (T = 60 min)” value [2] is reported as 88.89%. It also gave a bioavailability ([3]; po) of 43.9%, an MRT last ([3]; po, ig, dose 3 mg/kg) of 7.73 h and a half-life ([3]; po, ig, dose 3 mg/kg) of 3.53 h. It also gave an MRT last ([3]; iv, dose 0.5 mg/kg) of 5.13 h, a half-life ([3]; iv, dose 0.5 mg/kg) of 4.1 h and an AUC(0-inf) ([3]; po, ig, dose 3 mg/kg) of 4880 ng·h/mL. The AUC(0-t) ([3]; po, ig, dose 3 mg/kg) was 4790 ng·h/mL, the AUC(0-inf) ([3]; iv, dose 0.5 mg/kg) was 1850 ng·h/mL and the AUC(0-t) ([3]; iv, dose 0.5 mg/kg) was 1820 ng·h/mL.

With `Cc1cc(-n2nc3c(c2-n2ccn(-c4ccc5c(c4)C4(CC4)C(=O)N5C4CC4)c2=O)[C@H](C)N(C(=O)c2cc4cc([C@H]5CCOC(C)(C)C5)ccc4n2[C@@]2(c4noc(=O)[nH]4)C[C@@H]2C)CC3)cc(C)c1F` [Compound 3] the EC50 (GLP1R) was under 0.5 nM, the “HLM Remaining (T = 60 min)” value [1] was 80.83% and the “MLM Remaining (T = 60 min)” value [2] was 90.13%. For the same compound, the bioavailability ([3]; po) was 33.7%, the MRT last ([3]; po, ig, dose 3 mg/kg) was 8.42 h and the half-life ([3]; po, ig, dose 3 mg/kg) was 4.15 h. For the same compound, the MRT last ([3]; iv, dose 0.5 mg/kg) was 6.13 h, the half-life ([3]; iv, dose 0.5 mg/kg) was 5.73 h and the AUC(0-inf) ([3]; po, ig, dose 3 mg/kg) was 4960 ng·h/mL. For the same compound, the AUC(0-t) ([3]; po, ig, dose 3 mg/kg) was 4800 ng·h/mL, the AUC(0-inf) ([3]; iv, dose 0.5 mg/kg) was 2450 ng·h/mL and the AUC(0-t) ([3]; iv, dose 0.5 mg/kg) was 2360 ng·h/mL.

For `Cc1cc(-n2nc3c(c2-n2ccn(-c4ccc5c(c4)C4(CC4)C(=O)N5C)c2=O)[C@H](C)N(C(=O)c2cc4cc([C@H]5CCOC(C)(C)C5)ccc4n2C2(c4noc(=O)[nH]4)CC2)CC3)cc(C)c1F` [Compound 4], the EC50 (GLP1R) was under 0.5 nM, the “HLM Remaining (T = 60 min)” value [1] was 91.85% and the “MLM Remaining (T = 60 min)” value [2] was 95.46%.

Work on `Cc1cc(-n2nc3c(c2-n2ccn(-c4ccc5nc6n(c5c4)CCN(C)C6)c2=O)[C@H](C)N(C(=O)c2cc4cc([C@H]5CCOC(C)(C)C5)ccc4n2[C@@]2(c4noc(=O)[nH]4)C[C@@H]2C)CC3)cc(C)c1F` [Compound 7] yielded an EC50 (GLP1R) of under 0.5 nM.

Work on `Cc1cc(-n2nc3c(c2-n2ccn(-c4ccc5nc6n(c5c4)CCC6)c2=O)[C@H](C)N(C(=O)c2cc4cc([C@H]5CCOC(C)(C)C5)ccc4n2[C@@]2(c4noc(=O)[nH]4)C[C@@H]2C)CC3)cc(C)c1F` [Compound 8] yielded an EC50 (GLP1R) of under 0.5 nM.

In the case of `Cc1cc(-n2nc3c(c2-n2ccn(-c4ccc5c(c4)C(=O)C4(CC4)C5)c2=O)[C@H](C)N(C(=O)c2cc4cc([C@H]5CCOC(C)(C)C5)ccc4n2[C@@]2(c4noc(=O)[nH]4)C[C@@H]2C)CC3)cc(C)c1F` [Compound 9-A], the EC50 (GLP1R) is reported as under 0.5 nM.

In the case of `COCC#Cc1ccc(-n2ccn(-c3c4c(nn3-c3cc(C)c(F)c(C)c3)CCN(C(=O)c3cc5cc([C@H]6CCOC(C)(C)C6)ccc5n3[C@@]3(c5noc(=O)[nH]5)C[C@@H]3C)[C@H]4C)c2=O)c(F)c1` [Compound 10-A], the EC50 (GLP1R) is reported as under 0.5 nM.

With `Cc1cc(-n2nc3c(c2-n2ccn(-c4ccc5c(c4)CC4(COC4)C5)c2=O)[C@H](C)N(C(=O)c2cc4cc([C@H]5CCOC(C)(C)C5)ccc4n2[C@@]2(c4noc(=O)[nH]4)C[C@@H]2C)CC3)cc(C)c1F` [Compound 12-A] the EC50 (GLP1R) was under 0.5 nM.

For `[2H]C([2H])([2H])N1C(=O)C2(CC2)c2ccc(-n3ccn(-c4c5c(nn4-c4cc(C)c(F)c(C)c4)CCN(C(=O)c4cc6cc([C@H]7CCOC(C)(C)C7)ccc6n4[C@@]4(c6noc(=O)[nH]6)C[C@@H]4C)[C@H]5C)c3=O)cc21` [Compound 13], the EC50 (GLP1R) was under 0.5 nM, the “HLM Remaining (T = 60 min)” value [1] was 84.57% and the “MLM Remaining (T = 60 min)” value [2] was 84.44%.

In the case of `Cc1cc(-n2nc3c(c2-n2ccn(-c4cc(F)c5c(c4)N(C)C(=O)C54CC4)c2=O)[C@H](C)N(C(=O)c2cc4cc([C@H]5CCOC(C)(C)C5)ccc4n2[C@@]2(c4noc(=O)[nH]4)C[C@@H]2C)CC3)cc(C)c1F` [Compound 16], the EC50 (GLP1R) is reported as under 0.5 nM.

With `Cc1cc(-n2nc3c(c2-n2ccn(-c4ccc5c(c4)N(C4CC4)C(=O)C54CC4)c2=O)[C@H](C)N(C(=O)c2cc4cc([C@H]5CCOC(C)(C)C5)ccc4n2[C@@]2(c4noc(=O)[nH]4)C[C@@H]2C)CC3)cc(C)c1F` [Compound 17] the EC50 (GLP1R) was under 0.5 nM.

For `C[C@H]1c2c(nn(-c3ccc(F)c(C4CC4)c3)c2-n2ccn(-c3ccc4c(c3)N(C)C(=O)C43CC3)c2=O)CCN1C(=O)c1cc2cc([C@H]3CCOC(C)(C)C3)ccc2n1[C@@]1(c2noc(=O)[nH]2)C[C@@H]1C` [Compound 18], the EC50 (GLP1R) was under 0.5 nM, the “HLM Remaining (T = 60 min)” value [1] was 89.14% and the “MLM Remaining (T = 60 min)” value [2] was 91.41%. It also gave a bioavailability ([3]; po) of 33.5%, an MRT last ([3]; po, ig, dose 3 mg/kg) of 8.36 h and a half-life ([3]; po, ig, dose 3 mg/kg) of 4.29 h. It also gave an MRT last ([3]; iv, dose 0.5 mg/kg) of 5.48 h, a half-life ([3]; iv, dose 0.5 mg/kg) of 4.55 h and an AUC(0-inf) ([3]; po, ig, dose 3 mg/kg) of 6030 ng·h/mL. The AUC(0-t) ([3]; po, ig, dose 3 mg/kg) was 5840 ng·h/mL, the AUC(0-inf) ([3]; iv, dose 0.5 mg/kg) was 3000 ng·h/mL and the AUC(0-t) ([3]; iv, dose 0.5 mg/kg) was 2930 ng·h/mL.

With `Cc1cc(-n2nc3c(c2-n2ccn(-c4ccc5c(c4)N(C)C(=O)C54CC4)c2=O)[C@H](C)N(C(=O)c2cc4cc([C@H]5CCOC(C)(C)C5)ccc4n2C2(c4noc(=O)[nH]4)CC2)CC3)cc(C)c1F` [Compound 19] the EC50 (GLP1R) was under 0.5 nM, the “HLM Remaining (T = 60 min)” value [1] was 92.40% and the “MLM Remaining (T = 60 min)” value [2] was 77.17%.

With `C[C@H]1c2c(nn(-c3ccc(F)c(C4CC4)c3)c2-n2ccn(-c3ccc4c(c3)C3(CC3)C(=O)N4C)c2=O)CCN1C(=O)c1cc2cc([C@H]3CCOC(C)(C)C3)ccn2c1[C@@]1(c2noc(=O)[nH]2)C[C@@H]1C` [Compound 24] the EC50 (GLP1R) was under 0.5 nM.

With `C[C@H]1c2c(nn(-c3ccc(F)c(C4CC4)c3)c2-n2ccn(-c3ccc4c(c3)CC3(CC3)C4=O)c2=O)CCN1C(=O)c1cc2cc([C@H]3CCOC(C)(C)C3)ccc2n1[C@@]1(c2noc(=O)[nH]2)C[C@@H]1C` [Compound 26] the EC50 (GLP1R) was under 0.5 nM.
